Key:
[1] = Toxicity / body weight observation in Ba/F3 allograft mice; format: in vivo, mouse; details: Ba/F3 T315I allograft NOD/SCID mice, oral gavage, single agents and combinations
From the text: Mice were maintained under specific pathogen-free conditions, and food and water were provided ad libitum. A mouse Ba/F3 cell line that expresses a p210 […] fusion and T315I mutation was implanted subcutaneously (1×10^6 cells per mouse) into the right flank of female 6- to 8-week-old NOD/SCID mice. Mice were monitored daily, weighed up to three times weekly, and caliper measurements began when tumors became visible. Animals were randomly assigned to treatment groups as indicated in FIG. 2 by an algorithm that assigns animals to groups to achieve best case distributions of mean tumor size with lowest possible standard deviation. Tumor volume was calculated by measuring two perpendicular diameters using the following formula: (L×w^2)/2, in which L and w refer to the length and width of the tumor diameter, respectively. When tumors reached an average size of ~100 mm^3, mice were randomized and treated with vehicle, a SOS1 inhibitor of the present disclosure (Compound A), asciminib, ponatinib, Compound A and asciminib, or Compound A and ponatinib by oral gavage at the indicated dose and schedule.

KCL22-r xenograft = assay: KCL22-r (dasatinib-refractory) xenograft study (FIG. 7); format: in vivo, mouse; details: dasatinib monotherapy
Procedure: Mice were maintained under specific pathogen-free conditions, and food and water were provided ad libitum. Female 6- to 8-week-old athymic BALB/c nude (NCr) nu/nu mice were used to inoculate Ph+ CML cell lines. For example, KCL22-s cells (5×10^6) were harvested on the day of use and injected in growth-factor-reduced Matrigel/PBS (50% final concentration in 100 μL). One flank was inoculated subcutaneously per mouse. Mice were monitored daily, weighed twice weekly, and caliper measurements began when tumors became visible. Animals were randomly assigned to treatment groups as indicated in FIG. 1 by an algorithm that assigns animals to groups to achieve best case distributions of mean tumor size with lowest possible standard deviation. Tumor volume was calculated by measuring two perpendicular diameters using the following formula: (L×w^2)/2, in which L and w refer to the length and width of the tumor diameter, respectively. When tumors reached an average size of 100 mm^3, mice were randomized and treated with vehicle (20% Dexolve) or indicated compounds using a daily or twice daily schedule by oral gavage. Results are expressed as mean and […]. […] Combination treatment with dasatinib renders more than 90% complete responses. […]

SMILES | toxicity or body weight loss [1] | response of KCL22-r model to dasatinib (KCL22-r xenograft)
O=C(Nc1ccc(OC(F)(F)Cl)cc1)c1cnc(N2CC[C@@H](O)C2)c(-c2ccn[nH]2)c1 [asciminib] | No apparent toxicity or body weight loss was observed | 
Cc1nc(Nc2ncc(C(=O)Nc3c(C)cccc3Cl)s2)cc(N2CCN(CCO)CC2)n1 [dasatinib] |  | dasatinib-refractory tumor
Cc1ccc(C(=O)Nc2ccc(CN3CCN(C)CC3)c(C(F)(F)F)c2)cc1C#Cc1cnc2cccnn12 [ponatinib] | No apparent toxicity or body weight loss was observed | 

Source: patent publication US20260294925A1, “CELL PROLIFERATION MODULATORS AND USES THEREOF” (Kumquat Biosciences Inc., priority 2023, published 2026)
